Results: patent US5104858A, “Sensitizing multidrug resistant cells to antitumor agents” (priority 1988, dated 1992)
Entries after “also recorded” stand apart in the source; their conditions may differ. Read-outs that look alike come from different tables or passages of the source.

Assays:
Calmodulin [1] = target: T1, Calmodulin (Bos taurus, UniProt P62157); assay: biochemical
MCF-7/DOX cells [2] = assay: Antagonism of multidrug resistance (sensitization to doxorubicin) in MCF-7/DOX cells, MDR Ratio; assay type: cell-based, human; settings: for MDR Ratio (IC50 doxorubicin alone / IC50 doxorubicin in presence of modifier): 48 h
MCF-7/DOX cells [3] = assay: Inhibition of MCF-7/DOX cell growth, microtiter methylene blue staining assay, 48 h; assay type: cell-based, human
[4] = Norman and Drummond; cited from earlier work
MCF-7/DOX cells [5] = assay: Cellular accumulation of cis and trans-flupenthixol in MCF-7/DOX cells; assay type: cell-based, human; settings: for cell associated drug concentration at 3 μM / cell associated drug concentration at 10 μM / cell associated drug concentration at 100 μM: 3 hour incubation; for cellular accumulation of thioxanthene isomers, in words: MDR cells
Experimental: Cells were washed three times in cold PBS by centrifugation at 100× g for 10 minutes, resuspended in 2 ml of 0.3N HCl in 50% ethanol, and sonicated for 10 pulses at 200 ws with a Tekmar cell sonicator (Tekmar, Cincinnati, Ohio). Following centrifugation at 1000× g for 30 minutes, the supernatant was removed and assayed for drug content with a Perkin-Elmer 512 spectrofluorometer (Norwalk, Conn.). Optimal excitation and emission wavelengths for both thioxanthene isomers were determined to be 320 nm and 400 nm, respectively.

Calmodulin [6] = target: T1, Calmodulin; settings: Norman and Drummond; cited from earlier work
MCF-7/DOX cells [7] = settings: Fine et al; cited from earlier work
P-glycoprotein = settings: MDR Chinese hamster lung cells, Center; cited from earlier work
[8] = system: clinically resistant cancer; settings: with doxorubicin or bleomycin, Phase I, cited from earlier work
acute schizophrenia = settings: humans; cited from earlier work
MCF-7/DOX cells [9] = assay: Cellular accumulation of doxorubicin in MDR MCF-7/DOX cells; assay type: cell-based, human; settings: 3 hours, 15 μM doxorubicin
Description: Cellular content of doxorubicin was computed from standard curves prepared with known amounts of doxorubicin.

L1210/DOX cells = settings: Ganapathi and Grabowski; cited from earlier work
[10] = system: KC/ADR10 human breast cells; settings: Ahn et al; cited from earlier work
[11] = Homo sapiens, MCF7-DOX, 48 h, MCF-7/DOX cells, 48 h, drug alone; read-out: IC50 for cell growth inhibition
[12] = MCF-7/DOX cells, 48 h, drug alone; read-out: IC50 for cell growth inhibition
[13] = Homo sapiens, MCF7-DOX, 48 h; read-out: IC50 for cell growth inhibition
[14] = read-out: IC50 for cell growth inhibition
[15] = Homo sapiens, MCF7-DOX, 48 h, MCF-7/DOX cells, 48 h, structurally related compounds; read-out: Cell Growth Inhibition IC50 (Table 5)
[16] = Homo sapiens, MCF7-DOX, 48 h, read-out: concentration which alone produces 10% inhibition of cell growth
[17] = Homo sapiens, MCF7-DOX, 48 h; read-out: Cell Growth Inhibition IC50 (Table 5)
[18] = Homo sapiens, MCF7-DOX, 48 h, read-out: IC50 for cell growth inhibition

## CN(C)CCCN1c2cc(O)ccc2Sc2cc(O)c(Cl)cc21 [3,8-Dihydroxychlorpromazine]
Calmodulin [1]
  IC50: 183 µM
MCF-7/DOX cells [2]
  MDR Ratio (IC50 doxorubicin alone / IC50 doxorubicin in presence of modifier): 0.9
MCF-7/DOX cells [3]; [11]
  IC50: 400 µM

## CNCCCN1c2ccccc2Sc2ccc(Cl)cc21 [Desmethylchlorpromazine]
Calmodulin [1]
  IC50: 45 µM
MCF-7/DOX cells [2]
  MDR Ratio (IC50 doxorubicin alone / IC50 doxorubicin in presence of modifier): 1.2
MCF-7/DOX cells [3]; [11]
  IC50: 8 to 12 µM
MCF-7/DOX cells [3]; MCF-7/DOX cells, 48 h, drug alone; listed as desmethylchlorpromazine; read-out: IC50 for cell growth inhibition
  IC50: 8 µM
MCF-7/DOX cells [3]; [12]
  IC50: 8 µM

## NCCCN1c2ccccc2Sc2ccc(Cl)cc21 [Didesmethylchlorpromazine]
Calmodulin [1]
  IC50: 38 µM
MCF-7/DOX cells [2]
  MDR Ratio (IC50 doxorubicin alone / IC50 doxorubicin in presence of modifier): 1.1
MCF-7/DOX cells [3]; [11]
  IC50: 8 to 12 µM
MCF-7/DOX cells [3]; [12]
  IC50: 11 µM

## CN(C)CCCN1c2ccccc2Sc2ccc(C(F)(F)F)cc21 [Trifluopromazine]
MCF-7/DOX cells [3]; [13]
  IC50: 16 µM
MCF-7/DOX cells [3]; [14]
  IC50: 14 µM

## CN(C)CCCN1c2ccccc2CCc2ccccc21 [Imipramine]
Calmodulin [1]
  IC50: 125 µM
MCF-7/DOX cells [3]; [15]
  IC50: 19 µM

## OC1(c2ccc(Cl)c(C(F)(F)F)c2)CCN(CCCC(c2ccc(F)cc2)c2ccc(F)cc2)CC1 [Penfluridol]
Calmodulin [1]
  IC50: 3 µM
MCF-7/DOX cells [2]
  MDR Ratio (IC50 doxorubicin alone / IC50 doxorubicin in presence of modifier): 2.0
MCF-7/DOX cells [3]; [15]
  IC50: 3 µM

## CN(C)CCCCN1c2ccccc2Sc2ccc(Cl)cc21 [2-Chloro-10-[4-(dimethylamino)butyl] phenothiazine]
Calmodulin [1]
  IC50: 40 µM
MCF-7/DOX cells [2]
  MDR Ratio (IC50 doxorubicin alone / IC50 doxorubicin in presence of modifier): 2.0
MCF-7/DOX cells [3]; [11]
  IC50: 7 µM

## CN(C)CCCN1c2ccccc2Sc2cc(Cl)ccc21 [3-Chlorpromazine]
Calmodulin [1]
  IC50: 24 µM
MCF-7/DOX cells [2]
  MDR Ratio (IC50 doxorubicin alone / IC50 doxorubicin in presence of modifier): 1.3
MCF-7/DOX cells [3]; [11]
  IC50: 10 µM

## CCN(CC)CCCN1c2ccccc2Sc2ccc(Cl)cc21 [Chlorproethazine]
Calmodulin [1]
  IC50: 28 µM
MCF-7/DOX cells [2]
  MDR Ratio (IC50 doxorubicin alone / IC50 doxorubicin in presence of modifier): 2.2
MCF-7/DOX cells [3]; [11]
  IC50: 8 to 12 µM
MCF-7/DOX cells [3]; [12]
  IC50: 12 µM

## CN(C)CCCN1c2ccccc2Sc2c(Cl)cccc21 [4-Chlorpromazine]
Calmodulin [1]
  IC50: 25 µM
MCF-7/DOX cells [2]
  MDR Ratio (IC50 doxorubicin alone / IC50 doxorubicin in presence of modifier): 1.4
MCF-7/DOX cells [3]; [11]
  IC50: 15 µM

## CN(C)CCCN1c2ccccc2Sc2ccc(Cl)cc21 [Chlorpromazine]
MCF-7/DOX cells [2]
  sensitization of MCF-7/DOX cells to doxorubicin: 60%
[4]
  octanol:buffer partition coefficient (log P): 4.04
MCF-7/DOX cells [3]; [13]
  IC50: 8 µM
MCF-7/DOX cells [3]; [14]
  IC50: 8 to 12 µM

## OCCN1CCN(CC/C=C2/c3ccccc3Sc3ccc(C(F)(F)F)cc32)CC1 [cis-Flupenthixol]
[4]
  octanol:buffer partition coefficient (log P): 4.25
MCF-7/DOX cells [5]
  cell associated drug concentration at 3 μM: 830 ± 80 pmol/10^6 cells
  cell associated drug concentration at 10 μM: 1420 ± 250 pmol/10^6 cells
  cell associated drug concentration at 100 μM: 7000 ± 330 pmol/10^6 cells
  cellular accumulation of thioxanthene isomers, in words: equivalent, dose-dependent fashion
MCF-7/DOX cells [3]; [16]
  IC10: 3 µM
MCF-7/DOX cells [3]; [17]
  IC50: 24 µM
Calmodulin [6]
  anti-CaM effect of thioxanthene stereoisomers: no difference between cis and trans-flupenthixol

## CN1CCN(CCCN2c3ccccc3Sc3ccc(C(F)(F)F)cc32)CC1 [Trifluoperazine]
MCF-7/DOX cells [7]
  reversal of phorbol ester effects on anthracycline resistance: reversed
P-glycoprotein
  phosphorylation of P-glycoprotein, doxorubicin accumulation and cytotoxicity: increased phosphorylation of this protein in MDR Chinese hamster lung cells and enhanced doxorubicin accumulation and cytotoxicity
[8]
  dose limiting side effects in combination trials: Extrapyramidal side effects have proven to be dose limiting
[8]; listed as trifluperazine
  dose limiting side effects in combination trials: extrapyramidal side effects
MCF-7/DOX cells [3]; [13]
  IC50: 19 µM

## OCCN1CCN(CC/C=C2\c3ccccc3Sc3ccc(C(F)(F)F)cc32)CC1 [trans-Flupenthixol]
Acute schizophrenia
  extrapyramidal side effects / toxicity of flupenthixol isomers: lacks these side effects; also recorded: far less toxic; also recorded: apparent lack of extrapyramidal side effects
[4]
  octanol:buffer partition coefficient (log P): 4.25
MCF-7/DOX cells [5]
  cell associated drug concentration at 3 μM: 420 ± 80 pmol/10^6 cells
  cell associated drug concentration at 10 μM: 1000 ± 250 pmol/10^6 cells
  cell associated drug concentration at 100 μM: 6000 ± 330 pmol/10^6 cells
  cellular accumulation of thioxanthene isomers, in words: equivalent, dose-dependent fashion
MCF-7/DOX cells [3]; [18]
  IC50: 25 µM
MCF-7/DOX cells [3]; [16]
  IC10: 6 µM
MCF-7/DOX cells [3]; [17]
  IC50: 25 µM
Calmodulin [6]
  anti-CaM effect of thioxanthene stereoisomers: no difference between cis and trans-flupenthixol

## CSc1ccc2c(c1)N(CCCN(C)C)c1ccccc1S2 [Thiomethylpromazine]
Calmodulin [1]
  IC50: 42 µM
MCF-7/DOX cells [2]
  MDR Ratio (IC50 doxorubicin alone / IC50 doxorubicin in presence of modifier): 1.5
MCF-7/DOX cells [3]; [11]
  IC50: 20 µM

## CN(C)CCCN1c2ccc(O)cc2Sc2ccc(Cl)cc21 [7-Hydroxychlorpromazine]
Calmodulin [1]
  IC50: 68 µM
MCF-7/DOX cells [2]
  MDR Ratio (IC50 doxorubicin alone / IC50 doxorubicin in presence of modifier): 1.0
MCF-7/DOX cells [3]; [11]
  IC50: 50 µM
MCF-7/DOX cells [3]; versus chlorpromazine
  relative potency in inhibiting cell growth (fold less potent): 6 fold

## CN(C)CCN1c2ccccc2Sc2ccc(Cl)cc21 [2-Chloro-10-[2-(dimethylamino)ethyl] phenothiazine]
Calmodulin [1]
  IC50: 60 µM
MCF-7/DOX cells [2]
  MDR Ratio (IC50 doxorubicin alone / IC50 doxorubicin in presence of modifier): 1.5
MCF-7/DOX cells [3]; [11]
  IC50: 27 µM

## OCCN1CCN(CCCN2c3ccccc3Sc3ccc(Cl)cc32)CC1 [Perphenazine]
MCF-7/DOX cells [3]; [13]
  IC50: 32 µM

## COc1cccc2c1C(=O)c1c(O)c3c(c(O)c1C2=O)C[C@@](O)(C(=O)CO)C[C@@H]3O[C@H]1C[C@H](N)[C@H](O)[C@H](C)O1 [Doxorubicin]
MCF-7/DOX cells [9]
  doxorubicin accumulation, fold less in MCF-7/DOX than in sensitive cell line: approximately 10 fold
MCF-7/DOX cells [3]; [18]
  IC50: 12 µM
MCF-7/DOX cells [3]; human, mcf-7/dox cells
  resistance to doxorubicin of MCF-7/DOX cells relative to parental cell line: approximately 200 fold

## CN(C)CCCN1c2ccccc2Sc2ccccc21 [Promazine]
Calmodulin [1]
  IC50: 110 µM
MCF-7/DOX cells [2]
  MDR Ratio (IC50 doxorubicin alone / IC50 doxorubicin in presence of modifier): 1.2
MCF-7/DOX cells [2]; modifier at 10% growth inhibitory concentration
  sensitization of MCF-7/DOX cells to doxorubicin: 20%
MCF-7/DOX cells [3]; [11]
  IC50: 26 µM
MCF-7/DOX cells [3]; [12]
  IC50: 27 µM

## CC1CNCCN1S(=O)(=O)c1cccc2cnccc12 (stereo not shown) [H-7, 1-(5-isoquinolinylsulfonyl)-2-methylpiperazine]
L1210/DOX cells
  sensitization of L1210/DOX cells: failed to sensitize L1210/DOX cells
[10]
  sensitization of KC/ADR10 human breast cells: does sensitize KC/ADR10 human breast cells

## CC(CN1c2ccccc2Sc2ccccc21)N(C)C (stereo not shown) [Promethazine]
MCF-7/DOX cells [3]
  inhibition of cell growth, comparison in words: less potent inhibitor of cell growth than promazine
MCF-7/DOX cells [3]; [13]
  IC50: 29 µM

## CN(C)CCCN1c2ccccc2[S+]([O-])c2ccc(Cl)cc21 (stereo not shown) [Chlorpromazine Sulfoxide]
Calmodulin [1]
  IC50: 2200 µM
MCF-7/DOX cells [2]
  anti-MDR activity, comparison in words: retained its effect against MDR
MCF-7/DOX cells [3]
  inhibition of cell growth, comparison in words: lost most of its antiproliferative effect
MCF-7/DOX cells [3]; [18]
  IC50: 500 µM

## CN(C)CCCN1c2ccccc2Sc2cccc(Cl)c21 [1-Chlorpromazine]
Calmodulin [1]
  IC50: 74 µM
MCF-7/DOX cells [2]
  MDR Ratio (IC50 doxorubicin alone / IC50 doxorubicin in presence of modifier): 1.3
MCF-7/DOX cells [3]; [11]
  IC50: 21 µM

## O=c1[nH]c2ccccc2n1C1CCN(CCCC(c2ccc(F)cc2)c2ccc(F)cc2)CC1 [Pimozide]
Calmodulin [1]
  IC50: 7 µM
[4]
  octanol:buffer partition coefficient (log P): 4.88

## CCN(CC)CCCC(C)Nc1c2ccc(Cl)cc2nc2ccc(OC)cc12 (stereo not shown) [Quinacrine]
Calmodulin [1]
  IC50: 42 µM
MCF-7/DOX cells [2]
  MDR Ratio (IC50 doxorubicin alone / IC50 doxorubicin in presence of modifier): 1.3
MCF-7/DOX cells [3]; [15]
  IC50: 3 µM

## CN(C)CCCN1c2cc(Cl)ccc2Sc2cc(O)c(O)cc21 [7,8-Dihydroxychlorpromazine]
Calmodulin [1]
  IC50: 82 µM
MCF-7/DOX cells [2]
  MDR Ratio (IC50 doxorubicin alone / IC50 doxorubicin in presence of modifier): 0.8
MCF-7/DOX cells [3]; [11]
  IC50: 63 µM
